Reference: US11267812B2 (Mirati Therapeutics, Inc., priority 2016, dated 2022)

These compounds were tested on Phospho-ERK in NCI-H358 cells expressing KRas G12C (assay: Cellular inhibition of KRas G12C by Phospho-ERK measurement in NCI-H358 cells). Conditions: Homo sapiens; NCI-H358 cells, 3 hours compound treatment; read-out: IC50 (pERK(Thr202/Tyr204) normalized with GAPDH).
Format: cell-based
Outline: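 After 8–12 h attachment, NCI-H358 cells were treated with compounds for 3 h (0.5% DMSO final), fixed, methanol-permeabilized and immunostained. pERK(Thr202/Tyr204) was read by infrared imaging and normalized to GAPDH as percent of DMSO control. IC50 came from a 4-parameter fit.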
For `C=CC(=O)N1CCN(c2nc(OCC3CN(C)CCO3)nc3c2CCN(c2cc(O)cc4ccccc24)C3)CC1` (stereo not shown) [Example 193, 1-(4-(7-(3-hydroxynaphthalen-1-yl)-2-((4-methylmorpholin-2-yl)methoxy)-5,6,7,8-tetrahydropyrido[3,4-d]pyrimidin-4-yl)piperazin-1-yl)prop-2-en-1-one], the IC50 was 1 to 1000 nM.
`C=CC(=O)N1CCN(c2nc(OCC3CCN(C4CC4)C3)nc3c2CCN(c2cc(O)cc4ccccc24)C3)CC1` (stereo not shown) [Example 190, 1-(4-(2-((1-cyclopropylpyrrolidin-3-yl)methoxy)-7-(3-hydroxynaphthalen-1-yl)-5,6,7,8-tetrahydropyrido[3,4-d]pyrimidin-4-yl)piperazin-1-yl)prop-2-en-1-one] showed an IC50 of 1 to 1000 nM.
`C=CC(=O)N1CCN(c2nc(OCC3CCN(C4CCCCC4)C3)nc3c2CCN(c2cc(O)cc4ccccc24)C3)CC1` (stereo not shown) [Example 132, 1-[4-[2-[(1-cyclohexylpyrrolidin-3-yl)methoxy]-7-(3-hydroxy-1-naphthyl)-6,8-dihydro-5H-pyrido[3,4-d]pyrimidin-4-yl]piperazin-1-yl]prop-2-en-1-one] showed an IC50 of 1 to 1000 nM.
For `CN1CCC[C@H]1COc1nc2c(c(N3CCN(C(=O)/C=C/CN4CCCCC4)[C@@H](CC#N)C3)n1)CCN(c1cccc3ccccc13)C2` [Example 236, 2-((S)-4-(2-(((S)-1-methylpyrrolidin-2-yl)methoxy)-7-(naphthalen-1-yl)-5,6,7,8-tetrahydropyrido[3,4-d]pyrimidin-4-yl)-1-(E-4-(piperidin-1-yl)but-2-enoyl)piperazin-2-yl)acetonitrile], the IC50 was 1 to 1000 nM.
`C=CC(=O)N1CCN(c2nc(OC[C@@H]3C[C@@H](O)CN3C)nc3c2CCN(c2cccc4ccccc24)C3)CC1CC#N` (stereo partly drawn) [Example 218, 2-(1-acryloyl-4-(2-(((2S,4R)-4-hydroxy-1-methylpyrrolidin-2-yl)methoxy)-7-(naphthalen-1-yl)-5,6,7,8-tetrahydropyrido[3,4-d]pyrimidin-4-yl)piperazin-2-yl)acetonitrile] showed an IC50 of 1 to 1000 nM.
In the case of `C=CC(=O)N1CCN(c2nc(OCC3CCN(CCOC)C3)nc3c2CCN(c2cc(O)cc4ccccc24)C3)CC1` (stereo not shown) [Example 103, 1-(4-(7-(3-hydroxynaphthalen-1-yl)-2-((1-(2-methoxyethyl)pyrrolidin-3-yl)methoxy)-5,6,7,8-tetrahydropyrido[3,4-d]pyrimidin-4-yl)piperazin-1-yl)prop-2-en-1-one], the IC50 is reported as 1 to 1000 nM.
`C=CC(=O)N1CCN(c2nc(OC[C@@H]3CCCN3C)nc3c2CCN(c2c(F)cccc2C(F)(F)F)C3)CC1CC#N` (stereo partly drawn) [Example 275, 2-(1-acryloyl-4-(7-(2-fluoro-6-(trifluoromethyl)phenyl)-2-(((S)-1-methylpyrrolidin-2-yl)methoxy)-5,6,7,8-tetrahydropyrido[3,4-d]pyrimidin-4-yl)piperazin-2-yl)acetonitrile] was tested, and the IC50 was 1 to 1000 nM.
`C=CC(=O)N1CCN(c2nc(OCCCN3CCN(C(C)=O)CC3)nc3c2CCN(c2cc(O)cc4ccccc24)C3)CC1` [Example 135, 1-[4-[2-[3-(4-acetylpiperazin-1-yl)propoxy]-7-(3-hydroxy-1-naphthyl)-6,8-dihydro-5H-pyrido[3,4-d]pyrimidin-4-yl]piperazin-1-yl]prop-2-en-1-one] was tested, and the IC50 was 1 to 1000 nM.
`C=CC(=O)N1CCN(c2nc(OC[C@@H]3CCCN3C)nc3c2CCN(c2cccc(C)c2C)C3)CC1CC#N` (stereo partly drawn) [Example 228, 2-(1-acryloyl-4-(7-(2,3-dimethylphenyl)-2-(((S)-1-methylpyrrolidin-2-yl)methoxy)-5,6,7,8-tetrahydropyrido[3,4-d]pyrimidin-4-yl)piperazin-2-yl)acetonitrile] showed an IC50 of 1 to 1000 nM.
Compound `C=CC(=O)N1CCN(c2nc(OCCN3CCCC[C@H]3C)nc3c2CCN(c2cc(O)cc4ccccc24)C3)CC1` [Example 97, (R)-1-(4-(7-(3-hydroxynaphthalen-1-yl)-2-(2-(2-methylpiperidin-1-yl)ethoxy)-5,6,7,8-tetrahydropyrido[3,4-d]pyrimidin-4-yl)piperazin-1-yl)prop-2-en-1-one] has an IC50 of 1 to 1000 nM.
